Patent US7067520B2, “Preventive or therapeutic medicines for diabetes containing fused-heterocyclic compounds or their salts” (Ishihara Sangyo Kaisha, Ltd., priority 2000, dated 2006)

Experiments:
L6 cells = experiment: Glucose uptake test by L6 cells; assay type: cell-based; details: Rattus norvegicus, 1 hour, 2-deoxy-[3H]-glucose uptake, control (MEM solvent alone) = 100%, read-out: Ratio activity (%); for activity at 10 µg/mL: treatment concentration 10 μg/ml; for activity at 100 µg/mL: treatment concentration 100 μg/ml
Experimental: Glucose Uptake Test by L6 Cells
Each of compounds under test was applied to L6 cells (rat cells originally derived from skeletal muscles) by the following method to measure the stimulating effect on glucose uptake. Namely, L6 cells were suspended in α-minimum essential medium (hereinafter referred to simply as MEM) containing 10% fetal bovine serum (hereinafter referred to simply as FBS), and inoculated into a 96-well plastic plate in an amount of 5×10^4 cells/well and cultivated in an incubator (5% carbon dioxide gas, 37° C.) until the cells grew all over the well. Then, the culture medium was switched to MEM solution containing 2% BS, followed by cultivation further for from 7 to 10 ays (the culture medium was exchanged every three days) to differentiate the cells into skeletal muscle cells. Then, the culture medium was replaced with MEM solution without FBS, followed by cultivation for three hours, and then the compound under test prepared to a treatment concentration (diluted with MEM solution without FBS) was reacted with the skeletal muscle cells at 37° C. for 1 hour. The cells were washed with Krebs-Henseleit-Ringer buffer solution (hereinafter referred to simply as KHR buffer solution), and 2-deoxy-[^3H]-glucose was added to the cells in the KHR buffer solution, followed by treatment at 37° C. for 10 minutes. The treatment solution was removed, the cells were washed with the KHR buffer solution, then the cells were dissolved in a 1N sodium hydroxide solution in an appropriate amount, and the [^3H] radio activity was measured by means of a liquid scintillation counter (cpm) The percentage of the glucose uptake was represented by the percentage of radio activity when the compound under test was applied, taking the radio activity of the control (the MEM solvent alone was applied) as 100%. Each of the compounds as identified in Table 27 was used for treatment at a concentration of each of 10 μg/ml and 100 μg/ml to examine the stimulating effect on glucose uptake.

melting point	Compound	activity at 10 µg/mL (L6 cells) [%]	activity at 100 µg/mL (L6 cells) [%]
280 to 281 °C	CSc1nc2ccnn2c(Nc2ccc(C#N)cc2)c1C#N [compound 168]	> 115	> 115
148.8 to 149.6 °C	COc1nc2ccnn2c(NCc2ccccc2)c1C#N [compound 135]	> 115	> 115
187.8 to 189.2 °C (dec.)	N#Cc1c(SCc2ccccc2)nc2ccnn2c1NCc1ccncc1 [compound 71]	> 115	> 115
166 to 168 °C	CCOC(=O)c1c(SC)nc2ccnn2c1Nc1cccc([N+](=O)[O-])c1 [compound 225]	> 115	
153.4 to 155.4 °C	N#Cc1c(SC2CCCC2)nc2ccnn2c1NCc1ccncc1 [compound 105]	> 115	
123 °C	CCOC(=O)c1c(SC)nc2ccnn2c1NCc1ccncc1 [compound 221]	> 115	> 115
126.5 to 127.5 °C	COC(=O)c1c(SC)nc2ccnn2c1NOC1OCCO1 [compound 133]	> 115	
96 to 97 °C	CSc1nc2ccnn2c(NCCC2OCCO2)c1C#N [compound 210]	> 115	> 115
170 °C	CCOC(=O)c1c(SC)nc2ccnn2c1Nc1ccc([N+](=O)[O-])cc1 [compound 226]	> 115	> 115
232 °C	CSc1nc2cc(-c3ccccc3)nn2c(NCc2ccncc2)c1C#N [compound 48]		> 115
190 °C	CSc1nc2ccnn2c(NCc2ccccn2)c1C#N [Compound No. 5]		> 115
216 °C	CNc1c(C#N)c(SC)nc2ccnn12 [compound 14]		> 115
162 to 163 °C	C#CCNc1c(S(=O)(=O)c2ccccc2)c(SC)nc2ccnn12 [compound 60]	> 115	
201 to 202 °C	CSc1nc2ccnn2c(Nc2ccccc2Cl)c1C#N [compound 163]	> 115	
184 to 185 °C	CSc1nc2ccnn2c(NCCc2ccncc2)c1C#N [compound 215]	> 115	
144 °C	CSc1nc2ccnn2c(N(C)C)c1C#N [compound 17]		> 115
180 to 182 °C	CSc1nc2ccnn2c(Nc2cccc([N+](=O)[O-])c2)c1C#N [compound 218]	> 115	> 115
183 °C	C#CCOc1c(C#N)c(SC)nc2ccnn12 [compound 53]		> 115

melting point	Compound	activity at 10 µg/mL (L6 cells) [%]	activity at 100 µg/mL (L6 cells) [%]
124.5 to 126.5 °C	COC(=O)c1c(SC)nc2ccnn2c1NCc1ccccc1 [compound 120]	> 115	
132 to 133 °C	CCOCNc1c(C#N)c(SC)nc2ccnn12 [compound 9]	> 115	> 115
192 to 194 °C	CSc1nc2ccnn2c(Nc2ccccc2C)c1C#N [compound 203]	> 115	
121 to 122.2 °C	N#Cc1c(SCc2ccccc2)nc2ccnn2c1NCc1ccccc1 [compound 70]		
214 to 216 °C (dec.)	COCSc1nc2ccnn2c(N)c1C#N [compound 106]		
140 to 141 °C	CSc1nc2ccnn2c(Nc2ccc3ncsc3c2)c1C#N [compound 166]		
142 to 143 °C	COc1cccc(Nc2c(C#N)c(SC)nc3cc(C)nn23)c1 [compound 192]		
130.5 to 133.5 °C	CCOCSc1nc2ccnn2c(NCc2ccccc2)c1C#N [compound 117]		
270.5 to 271.3 °C	N#Cc1c(SC2CCCC2)nc2ccnn2c1N [compound 103]		
182 to 187 °C	CSc1nc2cc(C)nn2c(Cl)c1C#N [compound 185]		
206 to 208 °C	CSc1nc2ccnn2c(Nc2ccccc2C#N)c1C#N [compound 214]		
133 °C	CSc1nc(NCc2ccccc2)n2nccc2n1 [compound 39]		
163 °C	N#Cc1c(Cc2ccccc2)nc2ccnn2c1NCc1ccccc1 [compound 88]		
143 to 144 °C	CSc1nc2ccnn2c(NOCC2CCCO2)c1C#N (centres unmarked) [compound 213]		
199 to 201 °C	N#Cc1c(-c2ccccc2)nc2ccnn2c1NCc1ccncc1 [compound 89]		
245.6 to 245.9 °C	N#Cc1c(SCc2ccccc2)nc2ccnn2c1N [compound 69]		
138 °C	CSc1nc2ccnn2c(SCc2ccccc2)c1C#N [compound 183]		
179 °C	CSc1nc2nccn2c(NCc2ccccc2)c1C#N [compound 42]		

Further lines, the compound ahead of its results:

Compound	melting point	activity at 10 µg/mL (L6 cells) [%]	activity at 100 µg/mL (L6 cells) [%]
CSc1nc2ccnn2c(Nc2cc(C)ns2)c1C#N [compound 177]	175 to 176 °C		> 115
COCSc1nc2ccnn2c(NCc2ccncc2)c1C#N [compound 108]	164 to 165.5 °C (dec.)		> 115
CSc1nc2nccn2c(NCc2ccncc2)c1C#N [compound 43]	204 °C	> 115	> 115
Cc1nc2ccnn2c(N)c1C#N [compound 25]			> 115
CCOC(=O)c1c(SC)nc2ccnn2c1Nc1cccc(C#N)c1 [compound 223]	156 to 157 °C	> 115	> 115
CSc1nc2ccnn2c(NCCC#N)c1C#N [compound 82]	188 °C	> 115	
CSc1nc2cc(-c3ccccc3)nn2c(NCc2ccccc2)c1C#N [compound 46]	172 °C		> 115
CSc1nc2ccnn2c(Nc2ccccc2)c1C#N [compound 80]	195 to 196 °C	> 115	
CSc1nc2ccnn2c(Nc2ccc(C)cc2)c1C#N [compound 164]	201 to 202 °C	> 115	
CSc1nc2ccnn2c(Nc2ccc(Cl)cc2)c1C#N [compound 161]	275 to 276 °C	> 115	
C#CCNc1c(C#N)c(C)nc2ccnn12 [compound 22]	169 °C	> 115	> 115
COc1nc2ccnn2c(NCC2OCCO2)c1C#N [compound 136]	148.3 to 149.7 °C	> 115	> 115
CSc1nc2ccnn2c(NOCc2ccccc2)c1C(=O)O [compound 132]			> 115
Cc1nc2ccnn2c(NCCc2ccccc2)c1C#N [compound 27]	143 °C		> 115
C#CCNc1nc(SC)nc2ccnn12 [compound 64]	175 °C	> 115	
COC(=O)c1c(SC)nc2ccnn2c1Nc1ccccc1 [compound 122]		> 115	> 115

Compound	melting point	activity at 10 µg/mL (L6 cells) [%]	activity at 100 µg/mL (L6 cells) [%]
CSc1nc(NCc2ccncc2)n2nccc2n1 [compound 40]	136 °C	> 115	> 115
CSc1nc2ccnn2c(Nc2cccc(C#N)c2)c1C(=O)OCc1ccccc1 [compound 148]	141 to 142 °C		
CSc1nc2ccnn2c(Nc2ccc(O)cc2)c1C#N [compound 170]	250 to 256 °C		
CSc1nc2c(Br)cnn2c(NCc2ccccc2)c1C#N [compound 55]	184 °C		
CSc1nc2ccnn2c(NOc2ccccc2)c1C#N [compound 179]	> 250 °C		
CSc1nc2ccnn2c(N(Cc2ccccn2)Cc2ccccn2)c1C#N [compound 6]	139 °C		
COCSc1nc2ccnn2c(NCc2ccccc2)c1C#N [compound 107]	137.4 to 141.4 °C		
CSc1nc2ccnn2c(NCC2CCCO2)c1C#N (centres unmarked) [compound 212]	116 to 120 °C		
COc1c(C#N)c(SC)nc2ccnn12 [compound 229]	223 to 224 °C		
N#Cc1c(Cc2ccccc2)nc2ccnn2c1N [compound 87]	242 °C		
CSc1nc2cc(C)nn2c(NCc2ccncc2)c1C#N [compound 188]	190 to 191 °C		
CSc1nc2ccnn2c(Nc2cccc(S(N)(=O)=O)c2)c1C#N [compound 152]	> 280 °C		
CSc1nc2ccnn2c(NCc2ccccc2)c1C(=O)O [compound 128]	162.7 to 164 °C		
CSc1nc2ccnn2c(Cl)c1C#N [compound 62, 7-chloro-5-methylthiopyrazolo[1,5-a]pyrimidine-6-carbonitrile]	201 to 202 °C		
CSc1nc2ccnn2c(NCc2cccc3ccccc23)c1C#N [compound 30]	195 °C		
